Experimental data published in patent publication US9718812B2, “Substituted thiazole or oxazole P2X7 receptor antagonists” (Axxam S.P.A., priority 2014, dated 2017).

How the values were obtained:
P2X7 receptor = P2X7 receptor (Homo sapiens (Human), UniProt Q99572); assay: YO-PRO-1 Uptake Assay (large pore form, Bz-ATP stimulated); assay type: cell-based; conditions: HEK-293 cells stably transfected with P2X7 receptor; Bz-ATP EC80 (30 μM); 5 μM YO-PRO-1
Source text: YO-PRO®-1 is a fluorescent DNA-binding dye with a MW of 374 Da (Molecular Probes®, cat. Y3603). This method is based upon the presumed ability of YO-PRO®-1 to enter through the dilated or “large pore form” of P2X7 receptor and to bind to intracellular DNA whereupon it increases many fold its fluorescence intensity. The dye has an absorption spectrum compatible with excitation at 488 nm by argon laser sources and its emission wavelength is in the range of 515-575 nm. The aim of this assay was to validate the interaction of antagonists with P2X7 receptor using an alternative readout to Ca^2+-sensitive fluorescent dyes.
HEK-293 cells stably transfected with P2X7 receptor were seeded overnight in growth medium at 20,000 cells/well in 384-well plate. 24 hours later, the medium was removed, the cells were washed with Low Divalent Cation Assay Buffer (0.3 mM Ca2+ and 0 mM Mg2+) and then pre-loaded with 20 μL/w of 5 μM YO-PRO®-1 dye. […] fluorescence measurement immediately started. Then, 10 μL/w of test compounds and reference antagonist A438079 at 3×-concentration were injected with the […] and the kinetic response over a period of five minutes was monitored. A second injection of 10 μL/w of 3× Bz-ATP EC80 (30 μM) was performed with the […] and the signal of the emitted fluorescence was recorded for additional 60 minutes. All the experiment was carried out with a Low Divalent Cation Assay Buffer (0.3 mM Ca^2+ and 0 mM Mg^2+).
The effect of the test compounds was measured as percent inhibition vs the reference antagonist and IC50 values were calculated accordingly.

P2X7 receptor (hP2X7) = P2X7 receptor (hP2X7) (Homo sapiens (Human), UniProt Q99572); assay: Screen Quest Fluo-8 No Wash Calcium Assay (Bz-ATP-induced Ca2+ influx, FLIPR TETRA); assay type: cell-based; conditions: HEK-293 cells stably transfected with P2X7 receptor, Fluo-8 calcium, Low Divalent Cation Assay Buffer
P2X7 receptor (hP2X7), sequence (Q99572 whole entry): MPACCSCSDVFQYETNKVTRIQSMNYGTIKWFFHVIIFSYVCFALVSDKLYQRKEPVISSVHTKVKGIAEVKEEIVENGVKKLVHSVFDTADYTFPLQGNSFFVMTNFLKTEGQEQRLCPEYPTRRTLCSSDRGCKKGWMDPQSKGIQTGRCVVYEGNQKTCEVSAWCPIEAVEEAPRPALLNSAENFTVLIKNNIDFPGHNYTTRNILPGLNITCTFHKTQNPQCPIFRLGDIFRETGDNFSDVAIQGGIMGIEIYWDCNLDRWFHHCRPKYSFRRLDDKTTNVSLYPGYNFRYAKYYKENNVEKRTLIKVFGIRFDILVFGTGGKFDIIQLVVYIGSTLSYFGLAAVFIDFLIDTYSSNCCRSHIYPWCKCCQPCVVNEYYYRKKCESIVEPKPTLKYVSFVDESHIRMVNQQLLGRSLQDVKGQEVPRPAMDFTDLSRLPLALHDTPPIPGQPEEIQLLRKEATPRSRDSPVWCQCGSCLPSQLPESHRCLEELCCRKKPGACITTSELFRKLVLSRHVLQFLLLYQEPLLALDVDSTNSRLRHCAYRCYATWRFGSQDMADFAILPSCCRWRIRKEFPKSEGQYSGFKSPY
Protocol: Extracellular binding of Bz-ATP to P2X7 receptor opens the channel and allows Ca2+ influx into the cells. This Ca2+ entry was measured in HEK-293 cells stably transfected with P2X7 receptor using Screen Quest™ Fluo-8 No Wash Calcium Assay Kit (AAt Bioquest®, cat. 36316). Once inside the cell, the lipophilic blocking groups of Fluo-8 are cleaved by non-specific cell esterases, resulting in a negatively-charged fluorescent dye that stays inside cells. Its fluorescence increases upon binding to calcium. When HEK-293/P2X7 cells are stimulated with Bz-ATP, Ca2+ enters the cells and the fluorescence of Fluo-8 NW increases. The dye has an absorption spectrum compatible with excitation at 488 nm by argon laser sources and its emission wavelength is in the range of 515-575 nm.
HEK-293 cells stably transfected with P2X7 receptor were seeded overnight in growth medium at 10,000 to 20,000 cells/well in 384-well plate. 24 hours later, the medium was removed and the cells were pre-loaded at RT for 1 hour with 20 μL/w of Fluo-8 NW. Then 10 μL/w of test compounds and reference antagonist A438079 at 3×-concentration were injected with the […] and the kinetic response over a period of five minutes was monitored.

P2X7 receptor, sequence (Q99572 whole entry): as above

SMILES | IC50 (P2X7 receptor) [nM] | IC50 (P2X7 receptor (hP2X7)) [nM]
O=C(NCC(c1nccs1)N1CCc2ccccc2C1)c1c(F)cccc1Cl (stereo not drawn) [Compound 1, 2-chloro-N-[2-(3,4-dihydro-1H-isoquinolin-2-yl)-2-(1,3-thiazol-2-yl)-ethyl]-6-fluoro-benzamide] | 1360 | 1020
Cc1ncoc1C(CNC(=O)c1cc(-c2ncc(F)cn2)ccc1Cl)N1CCOCC1 (stereo not drawn) [Compound 54, 2-chloro-5-(5-fluoropyrimidin-2-yl)-N-[2-(4-methyl-1,3-oxazol-5-yl)-2-(morpholin-4-yl)ethyl]benzamide] | 279 | 114
COc1cccc(C(=O)NCC(c2ocnc2C)N2CCc3ccccc3C2)c1OC (stereo not drawn) [Compound 56, 2,3-dimethoxy-N-[2-(4-methyl-1,3-oxazol-5-yl)-2-(1,2,3,4-tetrahydroisoquinolin-2-yl)ethyl]benzamide] | 414 | 147
Cc1cccc(Cl)c1C(=O)NCC(c1cncs1)N1CCOCC1 (stereo not drawn) [Compound 13, 2-chloro-6-methyl-N-[2-(morpholin-4-yl)-2-(1,3-thiazol-5-yl)ethyl]benzamide] | 271 | 64
O=C(NCC(c1cnco1)N1CCOCC1)c1c(F)cccc1Cl (stereo not drawn) [Compound 44, 2-chloro-6-fluoro-N-[2-(morpholin-4-yl)-2-(1,3-oxazol-5-yl)ethyl]benzamide] | 500 | 677
Cc1cccc(C)c1C(=O)NCC(c1cncs1)N1CCc2ccccc2C1 (stereo not drawn) [Compound 18, 2,6-dimethyl-N-[2-(1,2,3,4-tetrahydroisoquinolin-2-yl)-2-(1,3-thiazol-5-yl)ethyl]benzamide] | 190 | 90
O=C(NCC(c1cnco1)N1CCc2ccccc2C1)c1c(F)cccc1Cl (stereo not drawn) [Compound 48, 2-chloro-6-fluoro-N-[2-(1,3-oxazol-5-yl)-2-(1,2,3,4-tetrahydroisoquinolin-2-yl)ethyl]benzamide] | 1070 | 541
O=C(NCC(c1cncs1)N1CCC(F)(F)CC1)c1c(F)cccc1Cl (stereo not drawn) [Compound 8, 2-chloro-N-[2-(4,4-difluoro-piperidin-1-yl)-2-(1,3-thiazol-5-yl)ethyl]-6-fluoro-benzamide] | 389 | 28
COc1cccc(C(=O)NCC(c2ocnc2C)N2CCOCC2)c1OC (stereo not drawn) [Compound 53, 2,3-dimethoxy-N-[2-(4-methyl-1,3-oxazol-5-yl)-2-(morpholin-4-yl)ethyl]benzamide] | 4900 | –

Stronger by IC50 (P2X7 receptor), values ahead:

IC50 (P2X7 receptor) [nM] | IC50 (P2X7 receptor (hP2X7)) [nM] | SMILES
90 | 106 | Cc1ncsc1C(CNC(=O)c1cc(-c2ncc(F)cn2)ccc1Cl)N1CCOCC1 (stereo not drawn) [Compound 37, 2-chloro-5-(5-fluoropyrimidin-2-yl)-N-[2-(4-methyl-1,3-thiazol-5-yl)-2-(morpholin-4-yl)ethyl]benzamide]
82 | 116 | Cc1ncsc1C(CNC(=O)c1cc(-c2ncc(F)cn2)ccc1Cl)N1CCOC2(CCC2)C1 (stereo not drawn) [Compound 93, 2-chloro-5-(5-fluoropyrimidin-2-yl)-N-[2-(4-methyl-1,3-thiazol-5-yl)-2-{5-oxa-8-azaspiro[3.5]nonan-8-yl}ethyl]benzamide]
79 | 32 | Cc1ncsc1C(CNC(=O)c1cccc2ncccc12)N1CCOC(c2ccc(F)cc2F)C1 (stereo not drawn) [Compound 99, N-{2-[2-(2,4-difluorophenyl)morpholin-4-yl]-2-(4-methyl-1,3-thiazol-5-yl)ethyl}quinoline-5-carboxamide]
46 | 119 | O=C(NCC(c1cnc(C2CCC2)s1)N1CCC(F)(F)CC1)c1c(F)cccc1Cl (stereo not drawn) [Compound 110, 2-chloro-N-[2-(2-cyclobutyl-1,3-thiazol-5-yl)-2-(4,4-difluoropiperidin-1-yl)ethyl]-6-fluorobenzamide]
37 | 46 | Cc1cccc(C)c1C(=O)NCC(c1scnc1C)N1CCc2ccccc2C1 (stereo not drawn) [Compound 30, 2,6-dimethyl-N-[2-(4-methyl-1,3-thiazol-5-yl)-2-(1,2,3,4-tetrahydroisoquinolin-2-yl)ethyl]benzamide]
